Where two headings read alike, the source gives them in different places. Non-standard residues stand in square brackets, D forms with d. Residues, ends and D or L forms follow the SMILES beside them. *: point of attachment. Phenylacetyl(2,3,4,5,6-F5) = O=C(Cc1c(F)c(F)c(F)c(F)c1F)*; Phe(4-Cl) = N[C@@H](Cc1ccc(Cl)cc1)C(=O)O; hArg = N=C(N)NCCCC[C@H](N)C(=O)O; 12Ado = NCCCCCCCCCCCC(=O)O; Nle = CCCC[C@H](N)C(=O)O; Orn = NCCC[C@H](N)C(=O)O; Abu = CC[C@H](N)C(=O)O; PhAc = O=C(Cc1ccccc1)*; Aoc = NCCCCCCCC(=O)O
What was measured:
[1] = molecular target: T1, membrane GHRH-receptors on human anterior pituitary cells (Homo sapiens, UniProt Q02643); assay: Receptor binding, displacement of 125I-[His1,Nle27]-hGH-RH(1-32)NH2 on human pituitary membranes
T1 construct: Human pituitary was purchased from the National Hormone and Peptide Program; tissue National Hormone and Peptide Program; host or cells: human pituitary (membrane fractions)
T1 sequence (Q02643 23-423): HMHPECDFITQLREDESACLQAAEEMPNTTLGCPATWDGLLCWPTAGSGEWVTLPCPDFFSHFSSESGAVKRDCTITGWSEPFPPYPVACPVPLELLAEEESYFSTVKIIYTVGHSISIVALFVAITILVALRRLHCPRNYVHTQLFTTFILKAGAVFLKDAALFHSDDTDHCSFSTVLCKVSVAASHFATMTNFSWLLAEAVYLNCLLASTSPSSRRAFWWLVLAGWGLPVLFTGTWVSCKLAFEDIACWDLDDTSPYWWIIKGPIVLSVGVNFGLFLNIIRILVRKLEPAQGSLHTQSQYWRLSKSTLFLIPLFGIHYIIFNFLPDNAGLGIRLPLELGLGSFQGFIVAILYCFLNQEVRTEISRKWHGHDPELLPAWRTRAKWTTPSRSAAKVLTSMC
Description: Receptor binding affinities in vitro. Preparation of human pituitary membrane fractions and receptor binding of analogs of GH-RH were performed (Halmos G, Rekasi Z, Szoke B, Schally A V. (1993) Receptor 3:87-97). Human pituitary was purchased from the National Hormone and Peptide Program. […] Relative affinities compared to hGH-RH(1-29)NH2 were calculated as the ratio of IC50 (dose causing 50% inhibition of specific binding to receptors) of the tested peptides to the IC50 of hGH-RH(1-29)NH2. The values were calculated from technical duplicate tubes.
Nineteen new AVR analogs of GHRH were tested in the receptor binding assay. Table 6 presents the IC50 values of GHRH antagonists to membrane GHRH-receptors binding on human anterior pituitary cells.

[2] = system: KATOIII stomach cancer cells; assay: In vitro cell viability, KATOIII; assay type: cell-based, human; conditions: antagonist 5 μM for 72 h, cell proliferation assay; MIA602 = 1
Description: (§1) The inhibitory effects of the various synthesized GHRH antagonists were tested in cell proliferation assays in various human cancer cell lines including stomach cancer (KATOIII, N87), colon cancer (HT-29), urothelial cancer (J82, RT4), pancreatic cancer (PANC-1, CFPAC-1), prostatic cancer (PC3), breast cancer (MX-1, HCC1806), ovarian cancer (SK-OV-3, OVCAR-3) and lung cancer (HCC827, H460).
(§2) Cell culture. Human cancer cell lines including pancreatic (PANC-1 and CFPAC-1), lung (HCC827 and H460), stomach (NCI-N87 and KATOIII), urothelial (J82, RT4), prostatic (PC3), breast (MX-1 and HCC 1806), colorectal (HT-29), and ovarian (SK-OV-3 and OVCAR-3) were obtained from the American Type Culture Collection (ATCC) and cultured at 37° C. in a humidified 95% air/5% CO2 atmosphere in the medium recommended by ATCC.
(§3) In vitro cell viability. Cell viability was analyzed as follows: cancer cells including pancreatic (PANC-1 and CFPAC-1), lung (HCC827 and H460), stomach (NCI-N87 and KATOIII), urothelial (J82, RT4), prostatic (PC3) and breast (MX-1 and HCC 1806), colorectal (HT-29) and ovarian (SK-OV-3 and OVCAR-3) were grown on 96 well plates to ˜60% confluence, the cells were starved for 24 h in culture medium containing 0.5% FBS. Cells were then treated with GHRH antagonists MIA602 AVR compounds at concentrations of 1, 2.5 or 5 μM, or vehicle (0.1% DMSO) in quintuplicates for 72 hours. The medium was replaced every 48 hours. Cell viability was measured using CellTiter 96 aqueous one solution kit (Promega). Inhibitory effects of tested AVR compounds in comparison to that of MIA602 are presented as inhibitory potency.
(§4) Inhibitory effects of selected AVR compounds in comparison to that of MIA602 are presented as inhibitory potency (e.g., percentage of inhibition). […] The cell lines tested including lung cancer HCC827 (FIG. 2A), pancreatic cancer CFPAC-1 (FIG. 2B), stomach cancer N87 (FIG. 2C), colon cancer HT-29 (FIG. 2D), breast cancers MX-1 and HCC1806 (FIGS. 2 E, F). Based on the results of cell proliferation assay after cancer cells were treated with antagonist at concentration of 5 μM for 72H, the relative inhibitory potency of AVR antagonists in comparison to MIA-602 is summarized in Table 3 A and B. Over 60 AVR compounds were tested in 12 cancer cell lines.

HCC827 lung cancer cells = assay: In vitro cell viability, HCC827; assay type: cell-based, human; conditions: antagonist 5 μM for 72 h, cell proliferation assay; MIA602 = 1
Description: as §1, §2, §3, §4
(§5) Based on the results of cell proliferation assay after cancer cells were treated with antagonist at concentration of 5 µM for 72H, * at concentration of 2 µM for 72 H.

[3] = system: CFPAC-1 pancreatic cancer cells; assay: In vitro cell viability, CFPAC-1; assay type: cell-based, human; conditions: antagonist 5 μM for 72 h, cell proliferation assay; MIA602 = 1
Description: as §1, §2, §3, §4, §5

[4] = membrane receptors on human anterior pituitary cells, mean of two to three determinations, read-out: IC50

SMILES | IC50 [1, 4] [nM] | relative inhibitory potency in comparison to MIA-602, Stomach KATOIII [2] | relative inhibitory potency in comparison to MIA-602, Lung IICC827 (HCC827 lung cancer cells) | relative inhibitory potency in comparison to MIA-602, Pancreatic CFPAC-1 [3] | IC50 [1] [nM]
CCCC[C@H](NC(=O)[C@@H](NC(=O)[C@H](CC(=O)O)NC(=O)[C@H](CCC(N)=O)NC(=O)[C@H](CC(C)C)NC(=O)[C@H](CC(C)C)NC(=O)[C@H](CCCN)NC(=O)[C@H](Cc1c[nH]cn1)NC(=O)[C@H](C)NC(=O)[C@H](CO)NC(=O)[C@H](CC(C)C)NC(=O)[C@H](CCC(N)=O)NC(=O)[C@H](CC)NC(=O)[C@H](CC(C)C)NC(=O)[C@@H](NC(=O)[C@H](CCCCN)NC(=O)[C@H](CCCNC(=N)N)NC(=O)[C@H](Cc1ccc(OC)cc1)NC(=O)[C@H](CCCNC(=N)N)NC(=O)[C@H](CC(N)=O)NC(=O)[C@@H](NC(=O)[C@H](Cc1ccc(Cl)cc1)NC(=O)[C@@H](NC(=O)[C@H](C)NC(=O)[C@H](CC(=O)O)NC(=O)[C@@H](CCCNC(=N)N)NC(=O)[C@H](Cc1ccc(O)cc1)NC(=O)CCCCCCCCCCCNC(=O)Cc1c(F)c(F)c(F)c(F)c1F)[C@@H](C)CC)[C@@H](C)O)C(C)C)[C@@H](C)CC)C(=O)N[C@H](CCCNC(=N)N)C(=O)N[C@@H](CCCCNC(=N)N)C(=O)NCCCCCCCCCCCC(N)=O [AVR-620, 5FPhAC-Ada-Tyr-DArg-Asp-Ala-Ile-Cpa-Thr-Asn-Arg-Tyr(Me)-Arg-Lys-Val-Leu-Abu-Gln-Leu-Ser-Ala-His-Orn-Leu-Leu-Gln-Asp-Ile-Nle-DArg-Har-Ada-NH2] ({Phenylacetyl(2,3,4,5,6-F5)-12Ado}-Y[dR]DAI[Phe(4-Cl)]TNRY(Me)RKVL[Abu]QLSAH[Orn]LLQDI[Nle][dR][hArg][12Ado]-NH2) | 0.31 | 1.769 | 3.753 | 1.567 | 
CCCC[C@H](NC(=O)[C@@H](NC(=O)[C@H](CC(=O)O)NC(=O)[C@H](CCC(N)=O)NC(=O)[C@H](CC(C)C)NC(=O)[C@H](CC(C)C)NC(=O)[C@H](CCCCN)NC(=O)[C@H](CCCNC(=N)N)NC(=O)[C@H](C)NC(=O)[C@H](CO)NC(=O)[C@H](CC(C)C)NC(=O)[C@H](CCC(N)=O)NC(=O)[C@H](CC)NC(=O)[C@H](CC(C)C)NC(=O)[C@@H](NC(=O)[C@H](CCCCN)NC(=O)[C@H](CCCNC(=N)N)NC(=O)[C@H](Cc1ccc(OC)cc1)NC(=O)[C@H](CCCCNC(=N)N)NC(=O)[C@H](CC(N)=O)NC(=O)[C@@H](NC(=O)[C@H](Cc1ccc(Cl)cc1)NC(=O)[C@@H](NC(=O)[C@H](C)NC(=O)[C@H](CC(=O)O)NC(=O)[C@@H](CCCNC(=N)N)NC(=O)[C@H](Cc1ccc(O)cc1)NC(=O)CCCCCCCCCCCNC(=O)Cc1ccccc1)[C@@H](C)CC)[C@@H](C)O)C(C)C)[C@@H](C)CC)C(=O)N[C@H](CCCNC(=N)N)C(=O)N[C@@H](CCCCNC(=N)N)C(=O)NCCCCCCCCCCCC(N)=O [AVR-332] ({PhAc-12Ado}-Y[dR]DAI[Phe(4-Cl)]TN[hArg]Y(Me)RKVL[Abu]QLSARKLLQDI[Nle][dR][hArg][12Ado]-NH2) | 0.34 | 1.643 |  |  | 
CCCC[C@H](NC(=O)[C@@H](NC(=O)[C@H](CC(=O)O)NC(=O)[C@H](CCC(N)=O)NC(=O)[C@H](CC(C)C)NC(=O)[C@H](CC(C)C)NC(=O)[C@H](CCCCN)NC(=O)[C@H](CCCNC(=N)N)NC(=O)[C@H](C)NC(=O)[C@H](CO)NC(=O)[C@H](CC(C)C)NC(=O)[C@H](CCC(N)=O)NC(=O)[C@H](CC)NC(=O)[C@H](CC(C)C)NC(=O)[C@@H](NC(=O)[C@H](CCCCN)NC(=O)[C@H](CCCNC(=N)N)NC(=O)[C@H](Cc1ccc(OC)cc1)NC(=O)[C@H](CCCCNC(=N)N)NC(=O)[C@H](CC(N)=O)NC(=O)[C@@H](NC(=O)[C@H](Cc1ccc(Cl)cc1)NC(=O)[C@@H](NC(=O)[C@H](C)NC(=O)[C@H](CC(=O)O)NC(=O)[C@@H](CCCNC(=N)N)NC(=O)[C@H](Cc1ccc(O)cc1)NC(=O)CCCCCCCCCCCNC(=O)Cc1c(F)c(F)c(F)c(F)c1F)[C@@H](C)CC)[C@@H](C)O)C(C)C)[C@@H](C)CC)C(=O)N[C@H](CCCNC(=N)N)C(=O)N[C@@H](CCCCNC(=N)N)C(=O)NCCCCCCCC(=O)NC [AVR-322, 5FPhAC-Ada-Tyr-DArg-Asp-Ala-Ile-Cpa-Thr-Asn-Har-Tyr(Me)-Arg-Lys-Val-Leu-Abu-Gln-Leu-Ser-Ala-Arg-Lys-Leu-Leu-Gln-Asp-Ile-Nle-DArg-Har-Aoc-NHCH3] ({Phenylacetyl(2,3,4,5,6-F5)-12Ado}-Y[dR]DAI[Phe(4-Cl)]TN[hArg]Y(Me)RKVL[Abu]QLSARKLLQDI[Nle][dR][hArg][Aoc]-NHMe) | 0.25 | 1.296 |  |  | 
CCCC[C@H](NC(=O)[C@@H](NC(=O)[C@H](CC(=O)O)NC(=O)[C@H](CCC(N)=O)NC(=O)[C@H](CC(C)C)NC(=O)[C@H](CC(C)C)NC(=O)[C@H](CCCCN)NC(=O)[C@H](CCCNC(=N)N)NC(=O)[C@H](C)NC(=O)[C@H](CO)NC(=O)[C@H](CC(C)C)NC(=O)[C@H](CCC(N)=O)NC(=O)[C@H](CC)NC(=O)[C@H](CC(C)C)NC(=O)[C@@H](NC(=O)[C@H](CCCCN)NC(=O)[C@H](CCCNC(=N)N)NC(=O)[C@H](Cc1ccc(OC)cc1)NC(=O)[C@H](CCCNC(=N)N)NC(=O)[C@H](CC(N)=O)NC(=O)[C@@H](NC(=O)[C@H](Cc1ccc(Cl)cc1)NC(=O)[C@@H](NC(=O)[C@H](C)NC(=O)[C@H](CC(=O)O)NC(=O)[C@@H](CCCNC(=N)N)NC(=O)[C@H](Cc1ccc(O)cc1)NC(=O)CCCCCCCCCCCNC(=O)Cc1ccccc1)[C@@H](C)CC)[C@@H](C)O)C(C)C)[C@@H](C)CC)C(=O)N[C@H](CCCNC(=N)N)C(=O)N[C@@H](CCCCNC(=N)N)C(=O)NC [AVR-234, PhAC-Ada-Tyr-DArg-Asp-Ala-Ile-Cpa-Thr-Asn-Arg-Tyr(Me)-Arg-Lys-Val-Leu-Abu-Gln-Leu-Ser-Ala-Arg-Lys-Leu-Leu-Gln-Asp-Ile-Nle-DArg-Har-NHCH3] ({PhAc-12Ado}-Y[dR]DAI[Phe(4-Cl)]TNRY(Me)RKVL[Abu]QLSARKLLQDI[Nle][dR][hArg]-NHMe) |  | 1.709 | 4.510 | 2.205 | 0.45
